Measurements from paper PMC11620503 (Antimicrobial Agents and Chemotherapy, 2024).
In brackets after ≈: the same amount, converted by molar mass. Several values for one entry are separate records, joined by “and”; a condition that tells them apart may be missing. Identical values can stand only once. Like-named read-outs stand apart in the source and are kept apart here. Marks after values point to notes of the source that are not given here.

Columns and labels:
[1] = target: OXA-66 (Acinetobacter baumannii, UniProt Q58XD2); experiment: Ki app determination (Waley's method)
[2] = target: NDM-4 (Klebsiella pneumoniae, UniProt C7C422, M154L); experiment: Ki app determination (Waley's method)
[3] = target: VIM-1 (Pseudomonas aeruginosa, UniProt A0A0F7KYQ8); experiment: Ki app determination (Waley's method)
[4] = target: NDM-5 (Klebsiella pneumoniae, UniProt C7C422, M154L/V88L); experiment: Ki app determination (Waley's method)
[5] = target: OXA-72 (Acinetobacter baumannii, UniProt Q5XQU0); experiment: Ki app determination (Waley's method)
[6] = target: CTX-M-27 (Escherichia coli, UniProt Q840M4); experiment: Ki app determination (Waley's method)
[7] = target: CTX-M-15 (Escherichia coli, UniProt Q9EXV5); experiment: Ki app determination (Waley's method)
[8] = target: IMP-1 (Serratia marcescens, UniProt P52699); experiment: Ki app determination (Waley's method)
[9] = target: SHV-12 (Klebsiella pneumoniae, UniProt P0A3M1, L31Q); experiment: Ki app determination (Waley's method)
[10] = target: VIM-2 (Escherichia coli, UniProt Q5U7L7); experiment: Ki app determination (Waley's method)
[11] = target: SHV-5 (Klebsiella pneumoniae, UniProt P0A3M1); experiment: Ki app determination (Waley's method)
[12] = target: OXA-65 (Acinetobacter baumannii, UniProt Q58XD3); experiment: Ki app determination (Waley's method)
[13] = target: CTX-M-14 (Escherichia coli, UniProt Q9L5C7); experiment: Ki app determination (Waley's method)
[14] = target: NDM-1 (Klebsiella pneumoniae, UniProt C7C422); experiment: Ki app determination (Waley's method)
[15] = target: IMP-6 (Serratia marcescens, UniProt P52699, S214G); experiment: Ki app determination (Waley's method)
[16] = target: NDM-7 (Klebsiella pneumoniae, UniProt C7C422, D130N/M154L); experiment: Ki app determination (Waley's method)
[17] = target: NDM-6 (Klebsiella pneumoniae, UniProt C7C422, A233V); experiment: Ki app determination (Waley's method)
[18] = target: SHV-2 (Klebsiella pneumoniae, UniProt P0A9Z8); experiment: Ki app determination (Waley's method)
[19] = system: 207 Enterobacterales including carbapenem-resistant isolates; experiment: MIC, broth microdilution; format: cell-based
[20] = system: MBL-producing isolates (Enterobacterales); experiment: MIC, broth microdilution; format: cell-based
[21] = system: MEM-nonsusceptible Enterobacterales with metallo-carbapenemases; experiment: MIC, broth microdilution; format: cell-based; settings: MEM-nonsusceptible Enterobacterales with metallo-carbapenemases (55), cefiderocol 54 isolates
[22] = system: 55 isolates of A. baumannii; experiment: MIC, broth microdilution; format: cell-based, Acinetobacter baumannii; settings: Acinetobacter baumannii (55)
[23] = system: MEM-nonsusceptible Enterobacterales with serine-carbapenemases; experiment: MIC, broth microdilution; format: cell-based; settings: MEM-nonsusceptible Enterobacterales with serine-carbapenemases (58)
[24] = system: serine-carbapenemase-producing isolates (Enterobacterales); experiment: MIC, broth microdilution; format: cell-based; settings: Enterobacterales with serine-carbapenemases (80)
[25] = system: 96 P. aeruginosa; experiment: MIC, broth microdilution; format: cell-based, Pseudomonas aeruginosa; settings: Pseudomonas aeruginosa (96); for MIC Range / MIC50 / MIC90: fixed concentration (μg/mL) in label
[26] = system: MEM-nonsusceptible Enterobacterales; experiment: MIC, broth microdilution; format: cell-based; settings: MEM-nonsusceptible Enterobacterales (127), cefiderocol 126 isolates
[27] = system: MEM-, imipenem/relebactam-, and ceftolozane/tazobactam-nonsusceptible P. aeruginosa; experiment: MIC, broth microdilution; format: cell-based, Pseudomonas aeruginosa
[28] = All Enterobacterales (207), cefiderocol 205 isolates, CLSI breakpoints, marked c: breakpoints for β-lactam alone, tigecycline: FDA breakpoints
[29] = All Enterobacterales (207), cefiderocol 205 isolates, fixed concentration (μg/mL) in label
[30] = Enterobacterales with metallo-carbapenemases (74), cefiderocol 73 isolates, CLSI breakpoints, marked c: breakpoints for β-lactam alone, tigecycline: FDA breakpoints
[31] = Enterobacterales with metallo-carbapenemases (74), cefiderocol 73 isolates, fixed concentration (μg/mL) in label
[32] = CLSI breakpoints, marked c: breakpoints for β-lactam alone, tigecycline: FDA breakpoints
[33] = fixed concentration (μg/mL) in label
[34] = fixed concentration (μg/mL) in label, read-out: MIC50
[35] = fixed concentration (μg/mL) in label, read-out: MIC90
[36] = MEM-nonsusceptible Pseudomonas aeruginosa (76), fixed concentration (μg/mL) in label
[37] = CLSI breakpoints, marked c: breakpoints for β-lactam alone
[38] = MEM-nonsusceptible Pseudomonas aeruginosa (76), CLSI breakpoints, marked c: breakpoints for β-lactam alone

Molecule: NC(=O)[C@@H]1CC[C@@H]2CN1C(=O)N2OS(=O)(=O)O [Avibactam, avibactam]
- Ki [1]: 7350 nM
- Ki [2]: > 100000 nM
- Ki [3]: > 100000 nM
- Ki [4]: > 100000 nM
- Ki [5]: 691 ± 63.8 nM
- Ki [6]: 1.29 ± 0.663 nM
- Ki [7]: 0.369 ± 0.0569 nM
- Ki [8]: > 100000 nM
- Ki [9]: 2.55 ± 0.696 nM
- Ki [10]: > 100000 nM
- Ki [11]: 2.15 ± 0.264 nM
- Ki [12]: 5900 nM
- Ki [13]: 2.35 ± 0.763 nM
- Ki [14]: > 100000 nM
- Ki [15]: > 100000 nM
- Ki [16]: > 100000 nM
- Ki [17]: > 100000 nM
- Ki [18]: 2.26 ± 1.44 nM

Molecule: CN(C)c1cc(NC(=O)CNC(C)(C)C)c(O)c2c1C[C@H]1C[C@H]3[C@H](N(C)C)C(O)=C(C(N)=O)C(=O)[C@@]3(O)C(O)=C1C2=O [tigecycline]
- CLSI MIC interpretation I (intermediate) [19, 28]: 4.3^d %
- CLSI MIC interpretation R (resistant) [19, 28]: 0.5^d %
- CLSI MIC interpretation S (susceptible) [19, 28]: 95.2^d %
- MIC Range [19, 29]: 0.12 to 16 µg/mL
- MIC50 ([19]; read-out: MIC50): 0.5 µg/mL (≈ 0.854 µM)
- MIC90 ([19]; read-out: MIC90): 2 µg/mL (≈ 3.41 µM)
- CLSI MIC interpretation I (intermediate) [20, 30]: 8.1^d %
- CLSI MIC interpretation R (resistant) [20, 30]: 0.0^d %
- CLSI MIC interpretation S (susceptible) [20, 30]: 91.9^d %
- MIC Range [20, 31]: 0.12 to 4 µg/mL
- MIC50 ([20]; Enterobacterales with metallo-carbapenemases (74), cefiderocol 73 isolates, fixed concentration (μg/mL) in label, read-out: MIC50): 0.5 µg/mL (≈ 0.854 µM)
- MIC90 ([20]; Enterobacterales with metallo-carbapenemases (74), cefiderocol 73 isolates, fixed concentration (μg/mL) in label, read-out: MIC90): 2 µg/mL (≈ 3.41 µM)
- MIC90 ([20]; MBL-producing isolates, comparators, read-out: MIC90): ≤ 4 µg/mL
- CLSI MIC interpretation I (intermediate) [21, 32]: 10.9^d %
- CLSI MIC interpretation R (resistant) [21, 32]: 0.0^d %
- CLSI MIC interpretation S (susceptible) [21, 32]: 89.1^d %
- MIC Range [21, 33]: 0.12 to 4 µg/mL
- MIC50 [21, 34]: 1 µg/mL (≈ 1.71 µM)
- MIC90 [21, 35]: 4 µg/mL (≈ 6.83 µM)
- MIC Range [22, 33]: 0.25 to 2 µg/mL
- MIC50 [22, 34]: 1 µg/mL (≈ 1.71 µM)
- MIC90 [22, 35]: 1 µg/mL (≈ 1.71 µM)
- CLSI MIC interpretation I (intermediate) [23, 32]: 1.7^d %
- CLSI MIC interpretation R (resistant) [23, 32]: 0.0^d %
- CLSI MIC interpretation S (susceptible) [23, 32]: 98.3^d %
- MIC Range [23, 33]: 0.12 to 4 µg/mL
- MIC50 [23, 34]: 1 µg/mL (≈ 1.71 µM)
- MIC90 [23, 35]: 2 µg/mL (≈ 3.41 µM)
- CLSI MIC interpretation I (intermediate) [24, 32]: 3.8^d %
- CLSI MIC interpretation R (resistant) [24, 32]: 0.0^d %
- CLSI MIC interpretation S (susceptible) [24, 32]: 96.3^d %
- MIC Range [24, 33]: 0.12 to 4 µg/mL
- MIC50 [24, 34]: 1 µg/mL (≈ 1.71 µM)
- MIC90 [24, 35]: 2 µg/mL (≈ 3.41 µM)
- MIC Range [25]: 0.5 to 16 µg/mL
- MIC50 ([25]; read-out: MIC50): 4 µg/mL (≈ 6.83 µM)
- MIC90 ([25]; read-out: MIC90): 16 µg/mL (≈ 27.3 µM)
- CLSI MIC interpretation I (intermediate) [26, 32]: 5.5^d %
- CLSI MIC interpretation R (resistant) [26, 32]: 0.8^d %
- CLSI MIC interpretation S (susceptible) [26, 32]: 93.7^d %
- MIC Range [26, 33]: 0.12 to 16 µg/mL
- MIC50 [26, 34]: 1 µg/mL (≈ 1.71 µM)
- MIC90 [26, 35]: 2 µg/mL (≈ 3.41 µM)
- MIC Range ([27]; Imipenem/relebactam-nonsusceptible Pseudomonas aeruginosa (43), fixed concentration (μg/mL) in label): 1 to 16 µg/mL
- MIC Range [27, 36]: 1 to 16 µg/mL
- MIC50 ([27]; Pseudomonas aeruginosa, Imipenem/relebactam-nonsusceptible Pseudomonas aeruginosa (43), fixed concentration (μg/mL) in label, read-out: MIC50): 4 µg/mL
- MIC90 ([27]; Pseudomonas aeruginosa, Imipenem/relebactam-nonsusceptible Pseudomonas aeruginosa (43), fixed concentration (μg/mL) in label, read-out: MIC90): 16 µg/mL
- MIC50 ([27]; Pseudomonas aeruginosa, MEM-nonsusceptible Pseudomonas aeruginosa (76), fixed concentration (μg/mL) in label, read-out: MIC50): 4 µg/mL (≈ 6.83 µM)
- MIC90 ([27]; Pseudomonas aeruginosa, MEM-nonsusceptible Pseudomonas aeruginosa (76), fixed concentration (μg/mL) in label, read-out: MIC90): 16 µg/mL (≈ 27.3 µM)
- MIC50 ([27]; Pseudomonas aeruginosa, Table 2, broth microdilution, read-out: MIC50): 4 µg/mL (≈ 6.83 µM)
- MIC90 ([27]; Pseudomonas aeruginosa, Table 2, broth microdilution, read-out: MIC90): 16 µg/mL (≈ 27.3 µM)
- MIC Range ([27]; last subgroup of Table 2 (heading not shown; 45 isolates by the percentages, ceftolozane/tazobactam 0% S), broth microdilution): 1 to 16 µg/mL

Molecule: colistin
- CLSI MIC interpretation I (intermediate) [19, 28]: 78.3%
- CLSI MIC interpretation R (resistant) [19, 28]: 21.7%
- MIC50 [19, 29]: 0.5 µg/mL
- MIC90 [19, 29]: >64 µg/mL
- CLSI MIC interpretation I (intermediate) [20, 30]: 89.2%
- CLSI MIC interpretation R (resistant) [20, 30]: 10.8%
- MIC50 [20, 31]: 0.5 µg/mL
- MIC90 [20, 31]: 4 µg/mL
- MIC90 ([20]; MBL-producing isolates, comparators): ≤ 4 µg/mL
- CLSI MIC interpretation R (resistant) [21, 32]: 14.5%
- MIC50 [21, 33]: 0.5 µg/mL
- MIC90 [21, 33]: 8 µg/mL
- CLSI MIC interpretation I (intermediate) [22, 37]: 94.5%
- CLSI MIC interpretation R (resistant) [22, 37]: 5.5%
- MIC50 [22, 33]: 1 µg/mL
- MIC90 [22, 33]: 2 µg/mL
- CLSI MIC interpretation I (intermediate) [23, 32]: 74.1%
- CLSI MIC interpretation R (resistant) [23, 32]: 25.9%
- MIC50 [23, 33]: 0.5 µg/mL
- MIC90 [23, 33]: >64 µg/mL
- MIC50 [24, 33]: 0.5 µg/mL
- MIC90 [24, 33]: >64 µg/mL
- CLSI MIC interpretation I (intermediate) [25, 37]: 100%
- CLSI MIC interpretation R (resistant) [25, 37]: 0%
- MIC50 [25]: 1 µg/mL
- MIC90 [25]: 1 µg/mL
- MIC Range [25]: 0.25 to 2 µg/mL
- CLSI MIC interpretation I (intermediate) [26, 32]: 77.2%
- CLSI MIC interpretation R (resistant) [26, 32]: 22.8%
- MIC50 [26, 33]: 0.5 µg/mL
- MIC90 [26, 33]: >64 µg/mL
- CLSI MIC interpretation I (intermediate) [27]: 100%
- CLSI MIC interpretation R (resistant) [27]: 0%
- MIC50 [27]: 1 µg/mL
- MIC90 [27]: 1 µg/mL
- MIC Range [27]: 0.5 to 2 µg/mL and 0.25 to 2 µg/mL
- CLSI MIC interpretation (%) I ([27]; I, intermediate (including susceptible dose-dependent), CLSI breakpoints, last subgroup of Table 2): 100%
- CLSI MIC interpretation I (intermediate) [27, 38]: 100%
- CLSI MIC interpretation R (resistant) [27, 38]: 0%
- MIC50 [27, 36]: 1 µg/mL
- MIC90 [27, 36]: 1 µg/mL
- MIC Range [27, 36]: 0.25 to 2 µg/mL
- CLSI MIC interpretation (%) R ([27]; R, resistant, CLSI breakpoints, last subgroup of Table 2): 0%
- MIC50 ([27]; Table 2, broth microdilution): 1 µg/mL
- MIC90 ([27]; Table 2, broth microdilution): 1 µg/mL
